In data set [1] the test system is NSCLC, MTC, Pancreatic Cancer, and Ovarian Cancer. Briefly: Treatment of patients with NSCLC, MTC, pancreatic cancer and ovarian cancer. The format is in vivo, human. The note with it: 90 patients (70 NSCLC, 18 MTC, 1 pancreatic cancer, 1 ovarian cancer), once daily 40-120 mg. As to the method: (§1) A total of 90 patients were recruited, including 70 patients with non-small cell lung cancer (NSCLC), 18 patients with medullary thyroid carcinoma (MTC), 1 patient with pancreatic cancer, and 1 patient with ovarian cancer. Compound 1-A of the present disclosure was administered once daily at dosage levels of 40-120 mg (40 mg, 60 mg, 90 mg, and 120 mg), resulting in an objective response rate (ORR) of 60% and a disease control rate (DCR) of 94% for the 90 patients.

Data set [2] has as its target RET-G810R (Homo sapiens, UniProt P07949, G810R). Briefly: RET inhibition experiment, HTRF KinEASE-TK kit, mutant RET-G810R enzyme. The format is biochemical. Background: In TR-FRET formats the signal depends on donor and acceptor labels being close together.
For data set [3], the target named is RET-G810S (Homo sapiens, UniProt P07949, G810S). The experiment in a line: RET inhibition experiment, HTRF KinEASE-TK kit, mutant RET-G810S enzyme. Type of data set: biochemical.
Data set [4] is described as follows: Safety evaluation in patients with RET-altered tumors. The format is in vivo, human. The conditions noted are these: 109 patients with RET-altered tumors, once daily, 10-120 mg. As to the method: A total of 109 patients with RET-altered tumors were recruited, and compound 1-A of the present disclosure was administered once daily at six dosage levels of 10 mg, 20 mg, 40 mg, 60 mg, 90 mg, and 120 mg.

Data set [5] deals with Ba/F3 KIF5B-RET^G810C. Briefly: Proliferation of RET mutant cells (Cell Titer Glo). Type of data set: cell-based. The conditions noted are these: for IC50: Mus musculus, BaF3, 72 h, 3 days, read-out: Inhibition IC50 (nM) of the compounds on the proliferation of the cell. As to the method: (§2) Experimental method: Ba/F3 cells (Ba/F3 KIF5B-RET^G810R, Ba/F3 KIF5B-RET^G810S, Ba/F3 KIFSB-RET^G810C) in logarithmic phase were respectively collected and inoculated into 96-well plates, with 2000 cells/95 µl/well. […] In addition, negative control wells (without the test compound) and blank control wells (without cells) were set.
(§3) Inhibition rate % = [1 - (average signal value of compound group - average signal value of blank control) / (average signal value of negative control - average signal value of blank control)] * 100%; the inhibition rate % was fitted using the four-parameter equation "log(agonist) vs response-variable slope (four parameters)" in GraphPad Prism 6.0, and the IC50 was obtained by calculation.
On the technique in general: ATP-based viability assays read luminescence as a measure of living cells.

Data set [6] has as its system Ba/F3 KIF5B-RET^G810S. The experiment in a line: Proliferation of RET mutant cells (Cell Titer Glo). The format is cell-based. The conditions noted are these: for IC50: Mus musculus, BaF3, 72 h, 3 days, read-out: Inhibition IC50 (nM) of the compounds on the proliferation of the cell. As to the method:
as §2, §3

Data set [7] relates to Ba/F3 KIF5B-RET^G810R. The experiment in a line: Proliferation of RET mutant cells (Cell Titer Glo). Type of data set: cell-based. The note with it: for IC50: Mus musculus, BaF3, 72 h, 3 days, read-out: Inhibition IC50 (nM) of the compounds on the proliferation of the cell. As to the method:
as §2, §3

Data set [8] addresses RET-G810C (Homo sapiens, UniProt P07949, G810C). The experiment in a line: RET inhibition experiment, HTRF KinEASE-TK kit, mutant RET-G810C enzyme. Type of data set: biochemical.
In data set [9] the test system is non-small cell lung cancer (NSCLC). The experiment in a line: Treatment of NSCLC patients (subgroups of the clinical study). The format is in vivo, human. Set-up: disease control rate (DCR) / overall central nervous system disease control rate (CNS DCR): concentration or dose not given beside the values. As to the method: as §1
Among the 70 NSCLC patients, there were 26 who had not been systemically pretreated, 33 who had previously been systemically pretreated (excluding first-generation selective RET inhibitors), and 11 who had been previously treated with at least first-generation selective RET inhibitor therapy.

The test system of data set [10] is Ba/F3 KIF5B-RET^V804E. Briefly: Proliferation of RET mutant cells (Cell Titer Glo). Type of data set: cell-based. The note with it: for IC50: Mus musculus, BaF3, 72 h, 3 days, read-out: Inhibition IC50 (nM) of the compounds on the proliferation of the cell. As to the method: (§4) Ba/F3 cells (Ba/F3 KIF5B-RET^V804E, Ba/F3 KIF5B-RET^V804L, Ba/F3 KIF5B-RET^V804M) in logarithmic phase were respectively collected and inoculated into 96-well plates, with 1000 cells/95 µl/well. […] In addition, negative control wells (without the test compound) and blank control wells (without cells) were set.
as §3

Data set [11] deals with Ba/F3 KIF5B-RET^V804M. Briefly: Proliferation of RET mutant cells (Cell Titer Glo). The note with it: for IC50: Mus musculus, BaF3, 72 h, 3 days, read-out: Inhibition IC50 (nM) of the compounds on the proliferation of the cell. Type of data set: cell-based. As to the method: as §4, §3
Data set [12] relates to Ba/F3 KIF5B-RET^V804L. Briefly: Proliferation of RET mutant cells (Cell Titer Glo). Type of data set: cell-based. The note with it: for IC50: Mus musculus, BaF3, 72 h, Ba/F3 KIFSB-RET^V804L, 3 days, read-out: Inhibition IC50 (nM) of the compounds on the proliferation of the cell. As to the method:
as §4, §3

Setting [13] is: Table 7, comparison with BLU-667 and LOXO-292.
The mark [14] stands for this setting: 8 NSCLC patients pretreated with first-generation selective RET inhibitors, dosed at 90 mg or 120 mg.
The mark [15] stands for this setting: 26 NSCLC patients not systemically pretreated.
Setting [16] is: 33 NSCLC patients systemically pretreated (excluding first-generation selective RET inhibitors).

Where “and” joins values, the source holds several entries; their conditions need not be identical. Equal entries are not always repeated. Structures can show the parent of a compound that is named as a salt.

Sequence of RET-G810R (P07949 29-1114 G810R): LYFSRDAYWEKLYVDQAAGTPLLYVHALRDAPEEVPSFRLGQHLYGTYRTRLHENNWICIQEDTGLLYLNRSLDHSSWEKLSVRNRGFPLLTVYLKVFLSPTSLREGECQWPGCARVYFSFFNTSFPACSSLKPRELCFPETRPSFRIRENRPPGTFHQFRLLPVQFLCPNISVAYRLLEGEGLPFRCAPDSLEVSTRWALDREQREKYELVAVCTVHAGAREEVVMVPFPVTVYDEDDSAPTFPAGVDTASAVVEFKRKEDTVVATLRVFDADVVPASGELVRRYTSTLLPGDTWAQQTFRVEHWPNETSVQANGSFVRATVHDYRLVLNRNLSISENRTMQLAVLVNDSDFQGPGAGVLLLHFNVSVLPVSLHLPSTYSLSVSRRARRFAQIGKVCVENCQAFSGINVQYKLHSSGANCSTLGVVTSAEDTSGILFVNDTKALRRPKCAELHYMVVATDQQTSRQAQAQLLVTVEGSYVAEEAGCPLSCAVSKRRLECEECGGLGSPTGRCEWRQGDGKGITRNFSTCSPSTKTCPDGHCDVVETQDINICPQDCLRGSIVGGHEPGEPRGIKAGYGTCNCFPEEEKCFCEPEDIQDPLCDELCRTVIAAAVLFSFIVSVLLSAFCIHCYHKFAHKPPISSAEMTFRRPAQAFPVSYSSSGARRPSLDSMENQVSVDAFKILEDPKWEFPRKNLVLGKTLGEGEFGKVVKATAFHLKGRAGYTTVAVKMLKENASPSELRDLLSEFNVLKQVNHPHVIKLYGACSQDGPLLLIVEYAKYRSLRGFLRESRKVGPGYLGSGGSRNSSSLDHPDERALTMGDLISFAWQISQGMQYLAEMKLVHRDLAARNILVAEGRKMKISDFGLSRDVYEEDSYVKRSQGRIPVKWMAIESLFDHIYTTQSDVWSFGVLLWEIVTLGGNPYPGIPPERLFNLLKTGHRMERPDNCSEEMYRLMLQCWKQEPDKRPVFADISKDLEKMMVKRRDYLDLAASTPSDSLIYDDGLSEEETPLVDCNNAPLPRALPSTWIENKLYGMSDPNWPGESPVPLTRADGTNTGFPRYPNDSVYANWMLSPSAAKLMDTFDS
Sequence of RET-G810S (P07949 29-1114 G810S): as the sequence (P07949 29-1114 G810R) above, with R782S counted along it
Sequence of RET-G810C (P07949 29-1114 G810C): as the sequence (P07949 29-1114 G810R) above, with R782C counted along it

Take `Cc1cc(Nc2cc(C)[nH]n2)nc(-c2ccc(N3CC4CC(C3)N4Cc3ccc(-n4cc(F)cn4)nc3)nc2)n1` [Compound 1-A, Fumarate of 2-(6-(6-((6-(4-fluoro-1H-pyrazol-1-yl)pyridin-3-yl)methyl)-3,6-diazabicyclo[3.1.1]heptan-3-yl)pyridin-3-yl)-6-methyl-N-(5-methyl-1H-pyrazol-3-yl)pyrimidin-4-amine]: the results for the “disease control rate (DCR)” value in [1], in [9] (setting [15]) and in data set [9] (setting [16]) were 94%, 96% and 97%, respectively. For the same molecule, the “objective response rate (ORR)” value in [1] worked out at 60%; in data set [9] (26 NSCLC patients not systemically pretreated (21/26)) it was 81%; in data set [9] (33 NSCLC patients systemically pretreated (excluding first-generation selective RET inhibitors) (23/33)), 70%. The IC50 in data set [2] (setting [13]) is 19.6 ± 0.67 nM; in data set [3] (setting [13]), 2.69 ± 0.56 nM; in data set [5], 65.3 ± 1 nM; in [6] it was 20.2 ± 0.35 nM; in data set [7], 26.3 ± 5.76 nM; in [8] (setting [13]), 53.2 ± 10.7 nM. In addition, the IC50 in data set [10] amounted to 59.8 ± 8.33 nM; in data set [11], 25.5 ± 1.91 nM; in data set [12], 66.6 ± 20.7 nM. Further, the “inhibition on RET-G810R enzyme (in words)” value in data set [2] (summary of Tables 1, 2, 7) was “remarkably inhibited”. Moreover, the “inhibition on RET-G810S enzyme (in words)” value in [3] (summary of Tables 3, 4, 7) is “remarkably inhibited”. Besides, in [4], the “dose-limiting toxicities (DLT)” value is “No dose-limiting toxicities (DLT) were observed”. Also, the “maximum tolerated dose (MTD)” value in data set [4] is “nor was the maximum tolerated dose (MTD) reached”. The “treatment-related adverse events (TRAE) of grade 1-2 and reversible” value in data set [4] is recorded as 76.1%. Further, the “inhibiting the proliferation, comparison in words” value was “superior to BLU-667 and Loxo-292” in [5]; “superior to BLU-667 and Loxo-292” in [6]; “superior to BLU-667 and Loxo-292” in data set [7]; “superior to BLU-667 and Loxo-292” in data set [10]; “superior to BLU-667 and Loxo-292” in data set [11]; “superior to BLU-667 and Loxo-292” in data set [12] (Ba/F3 KIF5B-RET^V804L). For the same molecule, the “inhibition on RET-G810C enzyme (in words)” value in data set [8] (summary of Tables 5, 6, 7) is listed as “remarkably inhibited”. In addition, the “partial response (PR), number of patients” value in data set [9] (setting [14]) is 3 patients. Further, the “stable disease (SD), number of patients” value in data set [9] (setting [14]) is recorded as 4 patients. The “tumor shrinkage observed, share of patients” value in data set [9] (8 NSCLC patients pretreated with first-generation selective RET inhibitors, dosed at 90 mg or 120 mg, 7 patients) was 88%. Besides, the “complete response (CR), number of patients” value in [9] (setting [15]) was 1. The “partial responses (PR), number of patients” value in data set [9] (setting [15]) is recorded as 20. Further, the “ERC1-RET fusion-positive patient achieving complete response (CR), number of patients” value in data set [9] (setting [16]) amounted to 1. The “response of the NCOA4-RET fusion-positive and RELCH-RET fusion-positive patients” value in data set [9] (NSCLC patients not systemically pretreated, 1 patient each) is recorded as “partial responses (PR)”. Further, the “overall central nervous system disease control rate (CNS DCR)” value in data set [9] (NSCLC patients with brain metastasis) came to 100%. Further, the “reductions of measurable brain lesions after treatment” value in [9] (six NSCLC patients with brain metastasis and measurable brain lesions, one value per patient) is 100% (3×) and 69% and 47% and 17%.
For `COc1ccc(CN2C3CC2CN(c2ccc(-c4cc(OCC(C)(C)O)cn5ncc(C#N)c45)cn2)C3)cn1` [LOXO-292, reference compound], the IC50 was 477 ± 4.4 nM in [5]; 87.83 ± 0.75 nM in data set [6]; 116.3 ± 1.15 nM in [7]; 460 ± 32.9 nM in [10]; 503 ± 190 nM in data set [11]; 1330 ± 666 nM in data set [12].
With `CO[C@]1(C(=O)N[C@@H](C)c2ccc(-n3cc(F)cn3)nc2)CC[C@H](c2nc(C)cc(Nc3cc(C)[nH]n3)n2)CC1` [BLU-667, reference compound], the IC50 in data set [5] amounted to 146 ± 3.4 nM; in data set [6], 29 ± 4.47 nM; in data set [7], 182 ± 80 nM; in [10] it was 76.2 ± 9.74 nM; in data set [11] it was 39.5 ± 16.7 nM; in data set [12], 87.1 ± 11.3 nM.

The values above are taken from EP4714449A1, “USE OF HETEROCYCLIC COMPOUND FOR TREATING DISEASES RELATED TO RET GENETIC CHANGE AND METHOD THEREFOR” (Sichuan Kelun-Biotech Biopharmaceutical Co., Ltd., priority 2023, dated 2024).
